Assay results published in ChEMBL document CHEMBL4342430, “An Agonist Radioligand for the Proinflammatory Lipid-Activated G Protein-Coupled Receptor GPR84 Providing Structural Insights” (J Med Chem, 2020).
The source made the active and inactive calls. The calls are words filed in the database; no cut-off is given here.

Key:
[1] = target: T1, G-protein coupled receptor 84 (Homo sapiens, UniProt Q9NQS5); assay: Displacement of [3H]PSB-1584 from recombinant human GPR84 expressed in CHO cell membranes co-expressing beta-arrestin2 measured after 6 hrs by scintillation counting method
[2] = target: T1, G-protein coupled receptor 84; assay: Agonist activity at recombinant human GPR84 expressed in CHO cell membranes co-expressing beta-arrestin2 assessed as beta-arrestin 2 recruitment measured after 90 mins by beta-galactosidase based PathHunter assay
[3] = target: T1, G-protein coupled receptor 84; assay: Agonist activity at recombinant human GPR84 expressed in CHO cell membranes co-expressing beta-arrestin2 assessed as inhibition of forskolin-stimulated [3H]cAMP accumulation preincubated for 5 mins followed by forskolin stimulation and measured after 15 mins by radioactive assay; assay type: functional, cell-based
[4] = target: T1, G-protein coupled receptor 84; assay: Displacement of [3H]PSB-1584 from recombinant human GPR84 expressed in CHO cell membranes co-expressing beta-arrestin2 at 100 uM measured after 6 hrs by scintillation counting method relative to control
[5] = target: T1, G-protein coupled receptor 84; assay: Positive allosteric modulation of recombinant human GPR84 expressed in CHO cell membranes co-expressing beta-arrestin2 assessed as increase in [3H]PSB-1584 binding measured after 6 hrs by scintillation counting method relative to control
[6] = target: T1, G-protein coupled receptor 84; assay: Positive allosteric modulation of recombinant human GPR84 expressed in CHO cell membranes co-expressing beta-arrestin2 assessed as increase in [3H]PSB-1584 binding measured after 6 hrs by scintillation counting method
[7] = target: G-protein coupled receptor 84 (Mus musculus) (UniProt Q8CIM5); assay: Displacement of [3H]PSB-1584 from GPR84 in mouse liver membranes measured after 6 hrs by scintillation counting method; assay type: cell membranes
[8] = species: Rattus norvegicus; assay: Displacement of [3H]PSB-1584 from GPR84 in rat brain striatum membranes measured after 6 hrs by scintillation counting method; assay type: cell membranes
[9] = species: Rattus norvegicus; assay: Displacement of [3H]PSB-1584 from GPR84 in rat liver membranes measured after 6 hrs by scintillation counting method; assay type: cell membranes
[10] = species: Rattus norvegicus; assay: Displacement of [3H]PSB-1584 from GPR84 in rat brain cortex membranes measured after 6 hrs by scintillation counting method; assay type: cell membranes
[11] = target: T1, G-protein coupled receptor 84; assay: Selectivity ratio of EC50 for agonist activity at recombinant human GPR84 expressed in CHO cell membranes co-expressing beta-arrestin2 assessed as inhibition of forskolin-stimulated [3H]cAMP accumulation to Ki for displacement of [3H]PSB-1584 from recombinant human GPR84 expressed in CHO cell membranes co-expressing beta-arrestin2; assay type: functional

T1 sequence (Q9NQS5 whole entry): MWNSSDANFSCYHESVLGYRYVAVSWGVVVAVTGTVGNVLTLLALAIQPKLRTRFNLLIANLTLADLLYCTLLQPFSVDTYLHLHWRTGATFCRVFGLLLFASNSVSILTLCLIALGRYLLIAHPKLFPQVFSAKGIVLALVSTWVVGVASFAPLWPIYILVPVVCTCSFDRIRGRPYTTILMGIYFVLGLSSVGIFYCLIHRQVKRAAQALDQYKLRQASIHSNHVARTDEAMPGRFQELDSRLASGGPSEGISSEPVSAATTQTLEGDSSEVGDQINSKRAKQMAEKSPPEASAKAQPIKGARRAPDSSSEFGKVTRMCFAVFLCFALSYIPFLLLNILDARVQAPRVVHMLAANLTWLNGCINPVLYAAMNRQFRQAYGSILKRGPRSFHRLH
Sequence of G-protein coupled receptor 84 (Mus musculus) (Q8CIM5 whole entry): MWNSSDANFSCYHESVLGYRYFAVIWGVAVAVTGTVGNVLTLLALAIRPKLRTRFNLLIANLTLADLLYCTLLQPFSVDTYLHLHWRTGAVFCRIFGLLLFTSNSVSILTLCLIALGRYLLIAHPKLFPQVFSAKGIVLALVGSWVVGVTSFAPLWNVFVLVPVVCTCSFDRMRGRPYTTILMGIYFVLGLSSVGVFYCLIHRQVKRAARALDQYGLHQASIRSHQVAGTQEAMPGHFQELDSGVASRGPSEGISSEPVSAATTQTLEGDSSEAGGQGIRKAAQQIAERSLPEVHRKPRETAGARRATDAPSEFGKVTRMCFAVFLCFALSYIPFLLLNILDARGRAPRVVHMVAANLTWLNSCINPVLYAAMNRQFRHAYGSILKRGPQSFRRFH

CCCCCCCCNc1[nH]c(=O)[nH]c(=O)c1N=O
Ki [1]: 0.037 µM

CCCCCCNc1[nH]c(=O)[nH]c(=O)c1Br
Ki [1]: 0.225 µM

CCCCCCCCCCCC(O)CC(=O)O (racemic)
EC50 [2]: 0.432 µM | EC50 [3]: 1.57 µM | Ki [1]: 0.511 µM

CCCCOC(=O)c1cc(O)nc(O)n1
inhibition [4]: -3% | Ki [1]: > 10 µM

c1ccc2c(Cc3c[nH]c4ccccc34)c[nH]c2c1
%max [5]: < 100% | Activity [6]: Dose-dependent effect | inhibition [1]: inactive

O=Nc1c(NCCCc2ccccc2)[nH]c(=O)[nH]c1=O
Ki [1]: 0.189 µM

O=c1cc(N2CCC(Cc3ccccc3)CC2)[nH]c(=O)[nH]1
Ki [1]: 0.0187 µM

Oc1cc(NCCc2ccccc2)nc(O)n1
Ki [1]: 0.0108 µM

Cc1ccc(CCSc2nc(O)cc(=O)[nH]2)cc1
Ki [1]: 0.00328 µM

CCCCCCC(O)C(=O)O (racemic)
EC50 [2]: > 100 µM | inhibition [4]: 50% | EC50 [3]: > 100 µM | Ki [1]: 100 µM

CCc1ccc(CCNc2cc(=O)[nH]c(=O)[nH]2)cc1
Ki [1]: 0.000582 µM

O=c1cc(NCCc2ccccc2Cl)[nH]c(=O)[nH]1
Ki [1]: 0.036 µM

Cn1cc(Cc2cn(C)c3ccccc23)c2ccccc21
IC50 [1]: 14 µM

CCC/C=C/CNc1cc(=O)[nH]c(=O)[nH]1
Ki [1]: 0.0374 µM

Fc1ccc2[nH]cc(Cc3c[nH]c4ccc(F)cc34)c2c1
%max [5]: 125% | EC50 [6]: 0.199 µM

O=c1cc(NCCc2ccc(Br)cc2)[nH]c(=O)[nH]1
inhibition [7]: Active | inhibition [8]: Active | inhibition [9]: Active | inhibition [10]: Active

O=C(O)CCCCCCCCCCCO
EC50 [2]: > 100 µM | inhibition [4]: 5% | EC50 [3]: > 100 µM | Ki [1]: > 10 µM

CC(C)(C)c1ccc(CCNc2cc(=O)[nH]c(=O)[nH]2)cc1
Ki [1]: 0.00127 µM

O=C(NCCCc1ccccc1)c1cc(=O)[nH]c(=O)[nH]1
Ki [1]: 1.59 µM

CCCCCCCC(O)CC(=O)O (racemic)
EC50 [2]: 4.05 µM | EC50 [3]: 31.8 µM | Ki [1]: 3.31 µM

O=c1cc(NCCc2ccc(Cl)cc2Cl)[nH]c(=O)[nH]1
Ki [1]: 0.0023 µM

CCCCCCSc1nccc(O)n1
Ki [1]: 3.47 µM

O=c1cc(N2CCN(C3CCc4ccccc43)CC2)[nH]c(=O)[nH]1 (centres undefined)
Ki [1]: 0.0147 µM

CCCCCCCCCCC[C@@H](O)CC(=O)O
EC50 [2]: 0.452 µM | EC50 [3]: 1.75 µM | Ki [1]: 0.472 µM

O=c1cc(NCCc2cccc(Br)c2)[nH]c(=O)[nH]1
Ki [1]: 0.00399 µM

Fc1ccc2[nH]cc(Cc3c[nH]c4ccccc34)c2c1
%max [5]: 55%

CCCCCCSc1nc(O)cc(C(=O)O)n1
Ki [1]: 0.145 µM

Oc1cc(O)nc(SCCCCc2ccccc2)n1
Ki [1]: 0.000324 µM

O=c1cc(NCCCCCCCO)[nH]c(=O)[nH]1
Ki [1]: 0.267 µM

O=c1cc(NCCCOc2ccccc2)[nH]c(=O)[nH]1
Ki [1]: 0.0021 µM

Fc1cc(F)c2[nH]cc(Cc3c[nH]c4c(F)cc(F)cc34)c2c1
%max [5]: 87%

CCCCCCCC(=O)O [OCTANOIC ACID]
EC50 [2]: > 100 µM | EC50 [3]: > 100 µM | Ki [1]: 19.6 µM

Brc1ccc2[nH]cc(Cc3c[nH]c4ccc(Br)cc34)c2c1
Selectivity ratio [11]: 58 | %max [5]: 69% | EC50 [6]: 0.0591 µM

CCCCCCCCCCCCC(=O)O [TRIDECANOATE]
EC50 [2]: 1.7 µM | EC50 [3]: 9.61 µM | Ki [1]: 1.93 µM

O=c1cc(NCCc2c[nH]c3ccccc23)[nH]c(=O)[nH]1
Ki [1]: 0.497 µM

O=c1cc(O)nc(SCCc2ccc(C(F)(F)F)cc2)[nH]1
Ki [1]: 0.0367 µM

Fc1ccc2c(Cc3c[nH]c4cc(F)ccc34)c[nH]c2c1
%max [5]: 57% | EC50 [6]: 0.302 µM

Clc1ccc2[nH]cc(Cc3c[nH]c4ccc(Cl)cc34)c2c1
Selectivity ratio [11]: 20 | %max [5]: 90% | EC50 [6]: 0.25 µM

CCCCCCSc1nc(O)cc(C(=O)OC)n1
inhibition [4]: 9% | Ki [1]: > 10 µM

Fc1ccc2[nH]cc(Cc3c[nH]c4ccc(F)c(F)c34)c2c1F
%max [5]: 67% | EC50 [6]: 0.0836 µM

CCCCCCSc1nc(C)cc(O)n1
Ki [1]: 3.63 µM

CCCC(c1c[nH]c2ccccc12)c1c[nH]c2ccccc12
IC50 [1]: 22.4 µM

Oc1cc(O)nc(SCCCc2ccccc2)n1
Ki [1]: 0.0007 µM

CCCCCCCCCCCCC(O)C(=O)O (racemic)
EC50 [2]: 4.36 µM | EC50 [3]: 3.86 µM | Ki [1]: 0.318 µM

CCCCCCCCNC(=O)c1cc(=O)[nH]c(=O)[nH]1
inhibition [4]: 12% | Ki [1]: > 10 µM

COc1ccc2[nH]cc(Cc3c[nH]c4ccc(OC)cc34)c2c1
%max [5]: 46% | EC50 [6]: 0.103 µM

Fc1cc2c(Cc3c[nH]c4cc(Cl)c(F)cc34)c[nH]c2cc1Cl
Selectivity ratio [11]: 84 | %max [5]: 36% | EC50 [6]: 0.129 µM

Clc1ccc2c(Cc3c[nH]c4cc(Cl)ccc34)c[nH]c2c1
IC50 [1]: 43.7 µM

Oc1cc(NCCCCc2ccccc2)nc(O)n1
Ki [1]: 0.00058 µM

Fc1cccc2[nH]cc(Cc3c[nH]c4cccc(F)c34)c12
%max [5]: 56% | EC50 [6]: 1.52 µM

CCCCCCN(C)c1cc(=O)[nH]c(=O)[nH]1
Ki [1]: 0.00694 µM

O=c1cc(O)nc(SCCc2ccc(Br)cc2)[nH]1
Ki [1]: 0.00317 µM

O=c1cc(O)nc(SCCc2ccc(F)cc2)[nH]1
Ki [1]: 0.00377 µM

CCCCCCSc1nc(O)cc(CCC)n1
inhibition [4]: 51% | Ki [1]: ≥ 100 µM

CCCCCCCCN(C)c1cc(=O)[nH]c(=O)[nH]1
Ki [1]: 0.0036 µM

CCCCCCCCCCCC(=O)O [DODECANOATE]
EC50 [2]: 3.49 µM | Ki [1]: 2.17 µM

Cc1ccc(CCNc2cc(=O)[nH]c(=O)[nH]2)cc1
Ki [1]: 0.00125 µM

Fc1cc2[nH]cc(Cc3c[nH]c4cc(F)c(F)cc34)c2cc1F
%max [5]: 55% | EC50 [6]: 0.0524 µM

CCCCCNc1cc(=O)[nH]c(=O)[nH]1
Ki [1]: 0.091 µM

O=c1cc(N2CCN(Cc3cccc4ccccc34)CC2)[nH]c(=O)[nH]1
Ki [1]: 0.0627 µM

CCCCCCCCNc1[nH]c(=O)[nH]c(=O)c1Br
Ki [1]: 0.0347 µM

CCCCCCCCCNC(=O)c1cc(=O)[nH]c(=O)[nH]1
inhibition [4]: 26% | Ki [1]: > 10 µM

O=C(c1c[nH]c2ccccc12)c1c[nH]c2ccccc12
%max [5]: 59% | EC50 [6]: 1.93 µM

Fc1cccc2c(Cc3c[nH]c4c(F)cccc34)c[nH]c12
%max [5]: 153% | EC50 [6]: 0.0618 µM

CCCCCCCNc1[nH]c(=O)[nH]c(=O)c1N=O
Ki [1]: 0.0586 µM

CCCCCCCCCCNc1cc(O)nc(O)n1
Ki [1]: 0.000726 µM

CCC(c1c[nH]c2ccccc12)c1c[nH]c2ccccc12
IC50 [1]: 46.3 µM

CCCCCCCNc1cc(=O)[nH]c(=O)[nH]1
Ki [1]: 0.000866 µM

O=c1cc(NCCc2cccs2)[nH]c(=O)[nH]1
Ki [1]: 0.0494 µM

O=c1cc(NCCOc2ccccc2)[nH]c(=O)[nH]1
Ki [1]: 0.00312 µM

CCCCCCCCCNc1cc(=O)[nH]c(=O)[nH]1
Ki [1]: 0.00112 µM

Clc1cccc2[nH]cc(Cc3c[nH]c4cccc(Cl)c34)c12
%max [5]: 94% | EC50 [6]: 0.175 µM

CCCCCNC(=O)c1cc(=O)[nH]c(=O)[nH]1
Ki [1]: 1.56 µM

O=c1cc(NCCc2cccc(Cl)c2)[nH]c(=O)[nH]1
Ki [1]: 0.00475 µM

O=c1cc(NCCc2ccccc2F)[nH]c(=O)[nH]1
Ki [1]: 0.0356 µM

O=c1cc(N2CCN(c3ccc(Cl)cc3)CC2)[nH]c(=O)[nH]1
Ki [1]: 0.0444 µM

CCCCCCCCCC(O)CC(=O)O (racemic)
EC50 [2]: 3.25 µM | Ki [1]: 0.11 µM

O=c1cc(NCCc2cccc(F)c2)[nH]c(=O)[nH]1
Ki [1]: 0.00948 µM

O=c1cc(O)nc(SCCc2ccc(Cl)cc2)[nH]1
Ki [1]: 0.00263 µM

O=c1cc(NCCc2ccc(F)cc2)[nH]c(=O)[nH]1
Ki [1]: 0.0114 µM

CCCCCCNC(=O)c1cc(=O)[nH]c(=O)[nH]1
Ki [1]: 0.469 µM

CCCCCCOC(=O)c1cc(=O)[nH]c(=O)[nH]1
Ki [1]: 1.21 µM

COc1ccc2[nH]cc(Cc3c[nH]c4ccccc34)c2c1
%max [5]: 53% | EC50 [6]: 0.495 µM
